{"source": "patent US20220040230A1", "about": "“COMPOSITIONS AND METHODS FOR IMMUNOTHERAPIES” (The Regents of the University of California, priority 2018, published 2022)", "molecules": {"B1": {"name": "rhIFN-γ: Recombinant human IFN-γ from Biolegend (protein, UniProt P01579 24-161, looked up)", "Interferon gamma": "QDPYVKEAENLKKYFNAGHSDVADNGTLFLGILKNWKEESDRKIMQSQIVSFYFKLFKNFKDDQSIQKSVETIKEDMNVKFFNSNKKKRDDFEKLTNYSVTDLNVQRKAIHELIQVMAELSPAAKTGKRKRSQMLFRG"}}, "key": {"MP2 [1]": {"test_system": "MP2", "assay": "Surface expression on MP2 by flow cytometry", "assay_type": "cell-based, human", "settings": "24 h", "experimental": "MP2 cells were left untreated or treated with rhTNF-α (20 ng/mL), rhIFN-γ (200 U/mL) or the combination of rhTNF-α (20 ng/mL) and rhIFN-γ (200 U/mL) for 24 h. Afterwards, the cells were detached and the surface expression of CD44, CD54, MHC-class I and B7H1 were assessed using PE conjugated antibodies followed by flow cytometric analysis. Isotype controls were used as controls (FIG. 14A). MP2 and Capan cells were treated as described in FIG. 14A, and were detached from the tissue culture plates, labeled with ^51Cr and used in a standard 4-hour ^51Cr release assay using IL-2 (1000 U/mL) treated NK cells. Pre-treatment of NK cells with IL-2 (1000 U/ml) were carried out for 18-24 hours. Percent cytotoxicity was determined at different effector to target ratio and the lytic units 30/10^6 cells were determined using inverse number of NK cells required to lyse 30% of the tumor cells×100 (FIG. 14B).\nStaining was performed by labeling the cells with antibodies as described previously. Briefly, the cells were washed twice with ice-cold PBS/1% BSA. Predetermined optimal concentrations of specific human flow cytometric antibodies were added to 1×10^4 cells in 50 μl of cold-PBS/1% BSA and cells were incubated on ice for 30 min. […] Flow cytometry analysis was performed using Beckman Coulter Epics XL cytometer (Brea, Calif.) and results were analyzed in FlowJo vX software (Ashland, Oreg.)."}, "PL12": {"test_system": "PL12", "assay": "Propidium iodide cell death assay, PL12"}, "Capan": {"test_system": "Capan", "assay": "Propidium iodide cell death assay, Capan"}, "[2]": {"test_system": "NK-supernatant differentiated MP2 tumors", "assay": "Propidium iodide cell death assay, NK-supernatant differentiated MP2", "assay_type": "cell-based, human", "experimental": "(§1) P-values of <0.05 were obtained for differences between MP2 vs. PL12 and Capan at the concentrations of 10 nM, 200 nM, 600 nM, 1000 nM and […] of Paclitaxel (n=2 per each experimental condition) (FIG. 25A).\nDifferentiation of MP2 tumors was conducted as described previously. NK cells were treated with a combination of anti-CD16mAb (3 μg/mL) and IL-2 (1,000 U/mL) for 18 hours before supernatants were removed and used for differentiation experiments. The amounts of IFN-γ produced by activated NK cells were assess with IFN-γ ELISA (Biolegend, CA, USA). MP2 cells were differentiated with gradual daily addition of increasing amounts of NK cell supernatants (of corresponding treatments). On average, to induce differentiation, a total of 3,500 pg of IFN-γ containing supernatants were added for 4 days to induce differentiation and resistance of MP2 tumor cells to NK cell-mediated cytotoxicity. Afterwards, target cells were washed with 1×PBS, detached and used for experiments."}, "MP2 [3]": {"test_system": "MP2", "assay": "Propidium iodide cell death assay, MP2", "assay_type": "cell-based, human", "settings": "NAC (20 nM) 24 hours before paclitaxel", "experimental": "as §1"}, "OSCCs": {"test_system": "OSCCs", "assay": "Chemotherapy-mediated cell death of OSCCs", "assay_type": "cell-based, human"}, "OSCSCs": {"test_system": "OSCSCs", "assay": "Chemotherapy-mediated cell death of OSCSCs", "assay_type": "cell-based, human"}, "MP2 [4]": {"test_system": "MP2", "assay": "4-hour 51Cr release cytotoxicity / ADCC assay against MP2", "assay_type": "cell-based, human", "settings": "IL-2 treated NK cells; tumor cells treated 24 h", "experimental": "The target cells (5×10^5) were labeled with 50 μCi ^51Cr (Perkin Elmer, Santa Clara, Calif.) and chromated for 1 hour. Following incubation, target cells were washed once to remove excess unbound ^51Cr. […] Following incubation, target cells were washed again to remove excess unbound antibody and ^51Cr. Labeled target cells were culture with effector cells and the cytotoxicity against target cells were assessed using ^51Cr release cytotoxicity assay.\n^51Cr Release Cytotoxicity Assay ^51Cr was purchased from Perkin Elmer (Santa Clara, Calif.). Standard ^51Cr release cytotoxicity assays were used to determine NK cell cytotoxic function in the experimental cultures. […] After a 4-hour incubation period, the supernatants were harvested from each sample and counted for released radioactivity using the gamma counter. Total (containing ^51Cr labeled target cells) and spontaneous (supernatants of target cells alone) release values were measured and used to calculate the percentage specific cytotoxicity. The percentage specific cytotoxicity was calculated using the following formula: […]\nLu30/10^6 is calculated by using the inverse of the number of effector cells needed to lyse 30% of target cells×100.\nThe ^51Cr release assay was performed as described previously. […] The percentage specific cytotoxicity was calculated using the following formula: […]"}, "[5]": {"settings": "NAC (20 nM) 24 hours before paclitaxel"}}}
{"molecule": "rhIFN-γ: Recombinant human IFN-γ from Biolegend", "values": [{"measurement": "surface expression of B7H1 on MP2", "setting": "MP2 [1]", "value": "upregulate B7H1"}, {"measurement": "surface expression of CD54, MHC-class I, B7H1 and CD44 on MP2", "setting": "MP2 [1]; rhTNF-α 20 ng/mL, rhIFN-γ 200 U/mL", "value": "increase surface expression of CD54 and MHC-class I"}]}
{"molecule": "CC(=O)N[C@@H](CS)C(=O)O", "note": "[NAC, N-Acetyl Cysteine]", "values": [{"measurement": "effect of NAC on paclitaxel mediated cell death of PL12", "setting": "PL12; [5]", "value": "increased paclitaxel mediated cell death"}, {"measurement": "effect of NAC on paclitaxel mediated cell death of Capan", "setting": "Capan; [5]", "value": "increased paclitaxel mediated cell death"}, {"measurement": "effect of NAC on cell death of NK-supernatant differentiated MP2", "setting": "[2]; [5]", "value": "increased cell death"}, {"measurement": "effect of NAC on paclitaxel mediated cell death of MP2", "setting": "MP2 [3]", "value": "increased paclitaxel mediated cell death"}]}
{"molecule": "N.N.[Cl][Pt][Cl]", "note": "[CDDP, cis-dichlorodiammineplatinum]", "values": [{"measurement": "cell death of patient-derived differentiated OSCCs", "setting": "OSCCs", "value": "higher cell death"}, {"measurement": "cell death of stem-like/poorly differentiated OSCSCs", "setting": "OSCSCs", "value": "minimal effects"}]}
{"molecule": "CC(=O)O[C@H]1C(=O)[C@@]2(C)[C@H]([C@H](OC(=O)c3ccccc3)[C@]3(O)C[C@H](OC(=O)[C@H](O)[C@@H](NC(=O)c4ccccc4)c4ccccc4)C(C)=C1C3(C)C)[C@]1(OC(C)=O)CO[C@@H]1C[C@@H]2O", "note": "[paclitaxel]", "values": [{"measurement": "paclitaxel mediated cell death of PL12", "setting": "PL12; compared with MP2", "value": "higher levels of cell death"}, {"measurement": "paclitaxel mediated cell death of Capan", "setting": "Capan; compared with MP2", "value": "higher levels of cell death"}, {"measurement": "cell death of patient-derived differentiated OSCCs", "setting": "OSCCs", "value": "higher cell death"}, {"measurement": "cell death of stem-like/poorly differentiated OSCSCs", "setting": "OSCSCs", "value": "minimal effects"}, {"measurement": "paclitaxel mediated cell death of NK-supernatant differentiated MP2", "setting": "[2]", "value": "susceptibility to paclitaxel"}]}
{"molecule": "B1", "values": [{"measurement": "resistance of MP2 against NK cell mediated cytotoxicity", "setting": "MP2 [4]", "value": "significant resistance"}]}
